In patent publication US10105467B2, “Biocompatible polymer compositions for tissue void filling” (Rutgers, The State University of New Jersey, priority 2013, dated 2018):

How the values were obtained:
[1] = test system: MDA-MB-231 breast cancer cells; experiment: In vitro cytotoxicity, Alamar blue metabolic assay, scaffolds in transwell inserts; format: cell-based
Experimental: MDA-MB-231 breast cancer cells and primary human dermal fibroblasts (HDFs) were obtained from the ATCC (USA). Both cell types were cultured in DMEM supplemented with 10% fetal bovine serum (FBS) and 25 μg/mL Gentamicin. For toxicity studies HDFs were seeded at 5,000 cells per well/1 mL medium in a 12-well plate and allowed to reach confluency prior to application of experimental conditions. MDA-MB-231 cell were seeded in 12-well plates at a seeding density of 5,000 per well/1 mL medium and incubated at 37° C. in a humidified atmosphere of 95% air and 5% CO2 for 24 h prior to application of experimental conditions. […]
Cells subjected to these experimental conditions were allowed to culture for 6 days at which point cell viability was measured using Alamar blue metabolic assay. […] The supernatant from each well was transferred to a 96-well plate and was measured using a fluorescence plate reader (Tecan, Männedorf, Switzerland) by applying wavelength excitation of 560 nm and read it at emission of 590 nm, which is directly correlated to the viable cell number, and inversely correlated with the toxicity of the cross-linked polymer tissue scaffolds. The mean absorbance for each treatment was determined and then expressed as a percent of viability relative to the control. […]

rabbit liver esterase = experiment: Incubation with rabbit liver esterase, HPLC analysis; format: in vitro ADME; settings: 30 min

Row | SMILES | IC50 ([1]; Homo sapiens, 144 h, MDA-MB-231, 6 days, free curcumin dissolved in DMSO, diluted in media, max 1% DMSO) [µM] | curcumin uptake by cells or degradation after addition to media ([1]; free curcumin added to cell culture media) | conversion to the free acid (rabbit liver esterase)
1 | COc1cc(/C=C/C(=O)CC(=O)/C=C/c2ccc(O)c(OC)c2)ccc1O [free curcumin, curcumin] | 14 | less than 48 hours | –
2 | CCOC(=O)[C@H](Cc1ccc(O)cc1)NC(=O)CCc1ccc(O)cc1 [DTE, desaminotyrosyl-tyrosine ethyl ester] | – | – | approximately 70%
